Experimental data published in patent US20240218022A1, “ANTI-VISTA MACROCYCLIC PEPTIDES AND COMPOSITIONS” (BRISTOL-MYERS SQUIBB COMPANY, priority 2022, published 2024).
pIC50: −log10 of the molar value. Read-outs that look alike come from different tables or passages of the source. Starred links: 1 amine or outer side, 2 acyl side, 3 side chain; linkers in the order of their positions; H or OH if unused. Positions of bridges follow the written chain, without caps; N, C: chain ends. Non-standard residues stand in square brackets, D forms with d. Residues, ends and D or L forms follow the SMILES beside them. NMeW = CN[C@@H](Cc1c[nH]c2ccccc12)C(=O)O; Phe(3-Me) = Cc1cccc(C[C@H](N)C(=O)O)c1; γGlu = O=C(O)[C@H](CCC(=O)[*:2])N[*:1]; 2Nal = N[C@@H](Cc1ccc2ccccc2c1)C(=O)O; βAsp = O=C(O)[C@H](CC(=O)[*:2])N[*:1]; NMeE = CN[C@@H](CCC(=O)O)C(=O)O; Gly(cPr) = N[C@H](C(=O)O)C1CC1; NMeL = CN[C@@H](CC(C)C)C(=O)O; Ahp(2) = CCCCC[C@H](N)C(=O)O; NMeNle = CCCC[C@H](NC)C(=O)O; Tle = CC(C)(C)[C@H](N)C(=O)O; NHexGly = CCCCCCNCC(=O)O; Nle = CCCC[C@H](N)C(=O)O; Orn = NCCC[C@H](N)C(=O)O; Aun = NCCCCCCCCCCC(=O)O; Nva = CCC[C@H](N)C(=O)O; AEEA = NCCOCCOCC(=O)O

Target: T1, mouse VISTA (mVISTA) (Mus musculus, UniProt Q9D659)
T1 construct: expressed in transfected cells; host or cells: Human embryonic kidney 293T cells
T1 sequence (Q9D659 33-308): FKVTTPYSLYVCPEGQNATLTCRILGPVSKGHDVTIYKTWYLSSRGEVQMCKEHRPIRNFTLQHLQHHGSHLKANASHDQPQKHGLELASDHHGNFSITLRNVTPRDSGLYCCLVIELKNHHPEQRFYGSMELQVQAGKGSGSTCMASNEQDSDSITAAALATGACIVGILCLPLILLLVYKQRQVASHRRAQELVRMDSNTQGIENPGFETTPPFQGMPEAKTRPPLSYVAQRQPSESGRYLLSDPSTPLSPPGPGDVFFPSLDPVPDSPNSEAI
Test: Cell-Based Binding High-Content Assay For mVISTA (HC CBA mVISTA)
Summary of the method: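 This high-content binding assay uses HEK293T cells expressing murine VISTA, measuring displacement of 2 nM biotinylated peptide by fluorescent streptavidin imaging. IC50 values come from four-parameter logistic fitting.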

[1] = 293T cells expressing mouse VISTA, competition with biotinylated peptide (2 nM), read-out: HC CBA mVISTA IC50

SMILES	pIC50 (read-out: HC CBA mVISTA IC50)	further results
CCCCCCN1CC(=O)N[C@@H](Cc2ccc(O)cc2)C(=O)N[C@@H](CCCC)C(=O)N[C@@H](CC(N)=O)C(=O)N[C@@H](CCCNC(=N)N)C(=O)N(C)[C@@H](CCC(=O)O)C(=O)N[C@@H](CCCCC)C(=O)N2CCC[C@H]2C(=O)N[C@@H](C(C)(C)C)C(=O)N[C@@H](CO)C(=O)N[C@H](C(=O)NCCOCCOCC(=O)N[C@@H](CCC(=O)NCCOCCOCC(=O)NCCCCCCCCCCC(=O)O)C(=O)O)CSCC(=O)N[C@@H](Cc2ccccc2)C(=O)N[C@@H](Cc2c[nH]c3ccccc23)C(=O)N[C@@H](CC(=O)O)C1=O [compound 2248] ({CH2CO}-FWD[NHexGly]Y[Nle]NR[NMeE][Ahp(2)]P[Tle]SC[AEEA][γGlu][AEEA][Aun]-OH; thioether N-14)	7.34	–
CCCCCCN1CC(=O)N[C@@H](Cc2ccc(O)cc2)C(=O)N[C@@H](CCCC)C(=O)N[C@@H](CC(N)=O)C(=O)N[C@@H](CCCNC(=N)N)C(=O)N(C)[C@@H](CCCC)C(=O)N[C@@H](CCCCC)C(=O)N2CCC[C@H]2C(=O)N[C@@H](C(C)(C)C)C(=O)N[C@@H](CO)C(=O)N[C@H](C(=O)NCCOCCOCC(=O)N[C@@H](CCC(=O)NCCOCCOCC(=O)NCCCCCCCCCCC(=O)O)C(=O)O)CSCC(=O)N[C@@H](Cc2cccc(C)c2)C(=O)N[C@@H](Cc2c[nH]c3ccccc23)C(=O)N[C@@H](CC(=O)O)C1=O [compound 2228] ({CH2CO}-[Phe(3-Me)]WD[NHexGly]Y[Nle]NR[NMeNle][Ahp(2)]P[Tle]SC[AEEA][γGlu][AEEA][Aun]-OH; thioether N-14)	7.41	–
CCCCCCN1CC(=O)N[C@@H](Cc2ccc(O)cc2)C(=O)N[C@@H](CCCC)C(=O)N[C@@H](CC(N)=O)C(=O)N[C@@H](CCCNC(=N)N)C(=O)N(C)[C@@H](CCCC)C(=O)N[C@@H](CCCCC)C(=O)N2CCC[C@H]2C(=O)N[C@@H](C(C)C)C(=O)N[C@@H](CO)C(=O)N[C@H](C(=O)NCC(=O)O)CSCC(=O)N[C@@H](Cc2ccccc2)C(=O)N[C@@H](Cc2c[nH]c3ccccc23)C(=O)N[C@@H](CC(=O)O)C1=O [Example 1382] ({CH2CO}-FWD[NHexGly]Y[Nle]NR[NMeNle][Ahp(2)]PVSCG-OH; thioether N-14)	7.76	–
CCCCCCN1CC(=O)N[C@@H](Cc2ccc(O)cc2)C(=O)N[C@@H](C(C)C)C(=O)NCC(=O)N[C@@H](CCCNC(=N)N)C(=O)N[C@@H](CC(C)C)C(=O)N[C@@H](CCCCC)C(=O)N2CCC[C@H]2C(=O)N[C@@H](C(C)C)C(=O)N[C@@H](CO)C(=O)N[C@H](C(=O)NCC(=O)O)CSCC(=O)N[C@@H](Cc2ccccc2)C(=O)N[C@@H](Cc2ccc(O)cc2)C(=O)N[C@@H](CC(=O)O)C1=O [Example 1063] ({CH2CO}-FYD[NHexGly]YVGRL[Ahp(2)]PVSCG-OH; thioether N-14)	–	pIC50 [1]: 7.54
CCCCCCN1CC(=O)N[C@@H](Cc2ccc(O)cc2)C(=O)N[C@@H](CCCC)C(=O)N[C@@H](CC(N)=O)C(=O)N[C@@H](CCCNC(=N)N)C(=O)N(C)[C@@H](Cc2c[nH]c3ccccc23)C(=O)N[C@@H](CCCCC)C(=O)N2CCC[C@H]2C(=O)N[C@@H](C(C)C)C(=O)N[C@@H](CC(=O)O)C(=O)N[C@H](C(=O)NCC(=O)O)CSCC(=O)N[C@@H](Cc2ccccc2)C(=O)N[C@@H](Cc2c[nH]c3ccccc23)C(=O)N[C@@H](CC(=O)O)C1=O [Example 1410] ({CH2CO}-FWD[NHexGly]Y[Nle]NR[NMeW][Ahp(2)]PVDCG-OH; thioether N-14)	8.28	–
CCCCCCN1CC(=O)N[C@@H](Cc2ccc(O)cc2)C(=O)N[C@@H](CCCCC)C(=O)N[C@@H](CCC(=O)O)C(=O)N[C@@H](CCCNC(=N)N)C(=O)N[C@@H](CC(C)C)C(=O)N[C@@H](CCCCC)C(=O)N2CCC[C@H]2C(=O)N[C@@H](C(C)C)C(=O)N[C@@H](CO)C(=O)N[C@H](C(=O)NCC(N)=O)CSCC(=O)N[C@@H](Cc2ccccc2)C(=O)N[C@@H](Cc2ccc(O)cc2)C(=O)N[C@@H](CC(=O)O)C1=O [Example 1057] ({CH2CO}-FYD[NHexGly]Y[Ahp(2)]ERL[Ahp(2)]PVSCG-NH2; thioether N-14)	–	pIC50 [1]: 7.45
CCCCCCN1CC(=O)N[C@@H](Cc2ccc(O)cc2)C(=O)N[C@@H](CC(C)C)C(=O)N[C@@H](CC(N)=O)C(=O)N[C@@H](CCCNC(=N)N)C(=O)N(C)[C@@H](CC(C)C)C(=O)N[C@@H](CCCCC)C(=O)N2CCC[C@H]2C(=O)N[C@@H](C(C)(C)C)C(=O)N[C@@H](CO)C(=O)N[C@H](C(=O)N[C@@H](CC(=O)NCCOCCOCC(=O)N[C@@H](CC(=O)O)C(=O)NCCOCCOCC(=O)NCCCCCCCCCCC(=O)O)C(=O)O)CSCC(=O)N[C@@H](Cc2ccccc2)C(=O)N[C@@H](Cc2ccc(O)cc2)C(=O)N[C@@H](CC(=O)O)C1=O [compound 2031] ({CH2CO}-FYD[NHexGly]YLNR[NMeL][Ahp(2)]P[Tle]SC[βAsp][AEEA]D[AEEA][Aun]-OH; thioether N-14)	–	pIC50 (cell-based binding high-content assay, mVISTA, read-out: HC CBA miPr ISTA IC50): 7.84
CCCCCCN1CC(=O)N[C@@H](Cc2ccc(O)cc2)C(=O)N[C@@H](CC(C)C)C(=O)N[C@@H](CC(N)=O)C(=O)N[C@@H](CCCN)C(=O)N(C)[C@@H](CCCC)C(=O)N[C@@H](CCCCC)C(=O)N2CCC[C@H]2C(=O)N[C@@H](C(C)(C)C)C(=O)N[C@@H](CO)C(=O)N[C@H](C(=O)N[C@@H](CCC(=O)NCCCCCCCCCCC(=O)O)C(=O)O)CSCC(=O)N[C@@H](Cc2ccccc2)C(=O)N[C@@H](Cc2c[nH]c3ccccc23)C(=O)N[C@@H](CC(=O)O)C1=O [Example 2134] ({CH2CO}-FWD[NHexGly]YLN[Orn][NMeNle][Ahp(2)]P[Tle]SC[γGlu][Aun]-OH; thioether N-14)	7.66	–
CCCCCCN1CC(=O)N[C@@H](Cc2ccc(O)cc2)C(=O)N[C@@H](CCCCC)C(=O)NCC(=O)N[C@@H](CCCNC(=N)N)C(=O)N[C@@H](CC(C)C)C(=O)N[C@@H](CCCCC)C(=O)N2CCC[C@H]2C(=O)N[C@@H](C(C)C)C(=O)N[C@@H](CO)C(=O)N[C@H](C(=O)NCCOCCOCC(=O)N[C@@H](CC(=O)O)C(=O)NCCOCCOCC(=O)NCCCCCCCCCCC(=O)O)CSCC(=O)N[C@@H](Cc2ccccc2)C(=O)N[C@@H](Cc2ccc(O)cc2)C(=O)N[C@@H](CC(=O)O)C1=O [compound 2292] ({CH2CO}-FYD[NHexGly]Y[Ahp(2)]GRL[Ahp(2)]PVSC[AEEA]D[AEEA][Aun]-OH; thioether N-14)	–	pIC50 (cell-based binding high-content assay, read-out: HC CBA miPrISTA IC50): 7.74
CCCCCCN1CC(=O)N[C@@H](Cc2ccc(O)cc2)C(=O)N[C@@H](C(C)C)C(=O)NCC(=O)N[C@@H](CCCNC(=N)N)C(=O)N[C@@H](CC(C)C)C(=O)N[C@@H](CCCCC)C(=O)N2CCC[C@H]2C(=O)N[C@@H](C(C)C)C(=O)N[C@@H](CC(=O)O)C(=O)N[C@H](C(=O)N[C@@H](CC(C)C)C(N)=O)CSCC(=O)N[C@@H](Cc2ccc3ccccc3c2)C(=O)N[C@@H](Cc2ccc(O)cc2)C(=O)N[C@@H](CC(=O)O)C1=O [Ex 1309] ({CH2CO}-[2Nal]YD[NHexGly]YVGRL[Ahp(2)]PVDCL-NH2; thioether N-14)	–	pIC50 (cell-based binding high-content assay, mVISTA, the 16th table, read-out: HC CBA mVISTA IC50): 8.28
CCCCCCN1CC(=O)N[C@@H](Cc2ccc(O)cc2)C(=O)N[C@@H](CCCC)C(=O)N[C@@H](CC(N)=O)C(=O)N[C@@H](CCCN)C(=O)N(C)[C@@H](CCCC)C(=O)N[C@@H](CCCCC)C(=O)N2CCC[C@H]2C(=O)N[C@@H](C(C)(C)C)C(=O)N[C@@H](CO)C(=O)N[C@H](C(=O)N[C@@H](CC(N)=O)C(=O)O)CSCC(=O)N[C@@H](Cc2ccccc2)C(=O)N[C@@H](Cc2c[nH]c3ccccc23)C(=O)N[C@@H](CC(=O)O)C1=O [Example 1400] ({CH2CO}-FWD[NHexGly]Y[Nle]N[Orn][NMeNle][Ahp(2)]P[Tle]SCN-OH; thioether N-14)	7.85	–
CCCCCCN1CC(=O)N[C@@H](Cc2ccc(O)cc2)C(=O)N[C@@H](CCC)C(=O)N[C@@H](CC(N)=O)C(=O)N[C@@H](CCCNC(=N)N)C(=O)N(C)[C@@H](CCCC)C(=O)N[C@@H](CCCCC)C(=O)N2CCC[C@H]2C(=O)N[C@@H](C(C)(C)C)C(=O)N[C@@H](CC(=O)O)C(=O)N[C@H](C(=O)NCCOCCOCC(=O)N[C@@H](CCC(=O)NCCOCCOCC(=O)NCCCCCCCCCCC(=O)O)C(=O)O)CSCC(=O)N[C@@H](Cc2ccccc2)C(=O)N[C@@H](Cc2c[nH]c3ccccc23)C(=O)N[C@@H](CC(=O)O)C1=O [compound 2255] ({CH2CO}-FWD[NHexGly]Y[Nva]NR[NMeNle][Ahp(2)]P[Tle]DC[AEEA][γGlu][AEEA][Aun]-OH; thioether N-14)	7.57	–
CCCCCCN1CC(=O)N[C@@H](Cc2ccc(O)cc2)C(=O)N[C@@H](C(C)C)C(=O)NCC(=O)N[C@@H](CCCNC(=N)N)C(=O)N[C@@H](CC(C)C)C(=O)N[C@@H](CCCCC)C(=O)N2CCC[C@H]2C(=O)N[C@@H](C(C)C)C(=O)N2CCC[C@H]2C(=O)N[C@H](C(=O)NCC(=O)O)CSCC(=O)N[C@@H](Cc2ccccc2)C(=O)N[C@@H](Cc2ccc(O)cc2)C(=O)N[C@@H](CC(=O)O)C1=O [Example 1109] ({CH2CO}-FYD[NHexGly]YVGRL[Ahp(2)]PVPCG-OH; thioether N-14)	–	pIC50 [1]: 7.41
CCCCCCN1CC(=O)N[C@@H](Cc2ccc(O)cc2)C(=O)N[C@@H](CCCC)C(=O)N[C@@H](CC(N)=O)C(=O)N[C@@H](CCCNC(=N)N)C(=O)N[C@@H](CC(C)C)C(=O)N[C@@H](CCCCC)C(=O)N2CCC[C@H]2C(=O)N[C@@H](C(C)C)C(=O)N[C@@H](C2CC2)C(=O)N[C@H](C(=O)NCC(=O)O)CSCC(=O)N[C@@H](Cc2ccc3ccccc3c2)C(=O)N[C@@H](Cc2c[nH]c3ccccc23)C(=O)N[C@@H](CC(=O)O)C1=O [compound 1232] ({CH2CO}-[2Nal]WD[NHexGly]Y[Nle]NRL[Ahp(2)]PV[Gly(cPr)]CG-OH; thioether N-14)	–	pIC50 (cell-based binding high-content assay, mVISTA, the 15th table, read-out: HC CBA mVISTA IC50): 7.44
